Measured values as given in patent EP1096932B1, “ANTIHYPERTENSIVE COMBINATION OF VALSARTAN AND CALCIUM CHANNEL BLOCKER” (Novartis Pharma AG, priority 1998, dated 2000).

System: diabetic SHRs
Test: Survival of streptozotocin-diabetic SHRs under drug treatment
Format: in vivo, spontaneously hypertensive rats (SHR)
Settings: twice daily gavage
From the text: In diabetic SHRs the presence of hypertension is an important determinant of renal injury, manifesting in functional changes such as albuminuria and in ultrastructural injury. For example, diabetic SHRs show ventricular hypertrophy and develop nephropathy resulting in sudden death events. Accordingly, the use of this animal model is well-applied in the art and suitable for evaluating effects of drugs on the development of diabetic renal diseases. There is a strong need to achieve a significant increase of the survival rate by treatment of hypertension in diabetes especially in NIDDM. It is known that CCBs are not considered as first line antihypertensives e.g. in NIDDM treatment. Though some kind of reduction of blood pressure may be achieved with CCBs, they may not be indicated for the treatment of renal disorders associated with diabetes.
Diabetes is induced in SHRs aged about 6 to 8 weeks weighing about 250 to 300 g by treatment e.g. with streptozotocin. The drugs are administered by twice daily gavage. Untreated diabetic SHRs are used as control group (group 1). […] On a regular basis, besides other parameters the survival rate after 21 weeks of treatment is being monitored. In week 21 of the study, following survival rates have been determined: […]

Row | SMILES | Survival Rate (30 mg/kg of valsartan, week 21 (group 2)) [%] | Survival Rate (20 mg/kg of verapamil, week 21 (group 3)) [%]
1 | CCCCC(=O)N(Cc1ccc(-c2ccccc2-c2nnn[nH]2)cc1)[C@H](C(=O)O)C(C)C [valsartan, (S)-N-(1-carboxy-2-methyl-prop-1-yl)-N-pentanoyl-N-[2'(1H-tetrazol-5-yl)biphenyl-4-yl-methyl]amine] | 45.9 | –
2 | COc1ccc(CCN(C)CCCC(C#N)(c2ccc(OC)c(OC)c2)C(C)C)cc1OC (centres unmarked) [verapamil] | – | 42.9
